17 molecules from PubChem BioAssay AID192 (DTP/NCI, 2004) can be followed below.

Where “and” joins values, the source holds several entries; their conditions need not be identical. Equal entries are not always repeated. Inconclusive results and toxic doses are left out.

This experiment has as its system BDF1 mice, B16 melanoma ip, median survival T/C. Description: NCI In Vivo Anticancer Drug Screen. Data for tumor model B16 Melanoma (intraperitoneal) in B6D2F1 (BDF1) mice. The note with it: endpoint: median survival time, higher = longer survival. The essentials: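 Values are ratios of treated (T) to vehicle-control (C) measurements of survival or tumor size in tumor-bearing mice.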

Setting [1] is: dose: 2.5 mg/kg/injection, schedule: Q01DX009 (ip), vehicle: saline.
Setting [2] is: dose: 100.0 mg/kg/injection, schedule: Q04DX003 (ip), vehicle: saline with Tween-80.
Where [3] appears, read: dose: 200.0 mg/kg/injection, schedule: Q04DX003 (ip), vehicle: saline with Tween-80.
The mark [4] stands for this setting: dose: 50.0 mg/kg/injection, schedule: Q01DX009 (ip), vehicle: saline with Tween-80.
[5] abbreviates: dose: 100.0 mg/kg/injection, schedule: Q01DX009 (ip), vehicle: saline with Tween-80.

As for `CCCCCC(O)C1C(=O)OC(C)C(O)/C=C/C=C/C=C/C=C\C=C(\C)C(O)CC(O)CC(O)CC(O)CC(O)CC(O)CC1O` (stereo not given), the T/C under setting [1] was 120 % of control; the T/C (dose: 5.0 mg/kg/injection, schedule: Q01DX009 (ip), vehicle: saline) was 97 % of control; the T/C (dose: 10.0 mg/kg/injection, schedule: Q01DX009 (ip), vehicle: saline) is 88 % of control.
In the case of `C/C(=C\c1ccccc1)C(=O)c1ccccc1`, the T/C was 100 % of control under setting [2]; 113 % of control under setting [3]; 92 % of control (dose: 400.0 mg/kg/injection, schedule: Q04DX003 (ip), vehicle: saline with Tween-80).
`CCOC(=O)C(=CN(C(C)C)C(C)C)C(=O)OCC`: the T/C under setting [4] is 117 % of control; the T/C (dose: 50.0 mg/kg/injection, schedule: Q04DX003 (ip), vehicle: saline with Tween-80) is 108 % of control; the T/C under setting [5] is 111 % of control; the T/C under setting [2] was 108 % of control; the T/C under setting [3] is 108 % of control.
In the case of `CC(=O)C(O)N1C(=O)C=CC1=O` (stereo not given), the T/C is 100 % of control (dose: 0.32 mg/kg/injection, schedule: Q01DX009 (ip), vehicle: saline with Tween-80); 108 % of control (dose: 0.63 mg/kg/injection, schedule: Q01DX009 (ip), vehicle: saline with Tween-80); 111 % of control (dose: 1.25 mg/kg/injection, schedule: Q01DX009 (ip), vehicle: saline with Tween-80); 105 % of control (dose: 2.5 mg/kg/injection, schedule: Q01DX009 (ip), vehicle: saline with Tween-80); 105 % of control (dose: 5.0 mg/kg/injection, schedule: Q01DX009 (ip), vehicle: saline with Tween-80).
With `C[C@@H]1O[C@@H](O[C@H]2CC[C@]3(C=O)[C@H]4CC[C@]5(C)[C@@H](c6ccc(=O)oc6)CC[C@]5(O)[C@@H]4CC[C@]3(O)C2)[C@H](O)[C@H](O)[C@H]1O[C@@H]1O[C@H](CO)[C@@H](O)[C@H](O)[C@H]1O`, the T/C runs as follows: (dose: 0.63 mg/kg/injection, schedule: Q01DX009 (ip), vehicle: saline) 102 % of control; (dose: 1.25 mg/kg/injection, schedule: Q01DX009 (ip), vehicle: saline) 92 % of control; under setting [1], 90 % of control.
For the molecule `O=c1c(O)c(-c2ccc(O)c(O)c2)oc2cc(O)cc(O)c12`, the T/C by setting is: (dose: 25.0 mg/kg/injection, schedule: Q02DX009 (ip), vehicle: saline) 89 % of control; (dose: 50.0 mg/kg/injection, schedule: Q02DX009 (ip), vehicle: saline) 88 % of control; (dose: 100.0 mg/kg/injection, schedule: Q02DX009 (ip), vehicle: saline) 93 % of control; (dose: 200.0 mg/kg/injection, schedule: Q02DX009 (ip), vehicle: saline with Tween-80) 86 % of control; (dose: 200.0 mg/kg/injection, schedule: Q02DX009 (ip), vehicle: saline) 87 % of control.
As for `CNC(C)Cc1ccccc1` (stereo not given), the T/C is, setting by setting: (dose: 3.75 mg/kg/injection, schedule: Q01DX009 (ip), vehicle: saline) 95 % of control; (dose: 15.0 mg/kg/injection, schedule: Q01DX009 (ip), vehicle: saline) 95 % of control; (dose: 30.0 mg/kg/injection, schedule: Q01DX009 (ip), vehicle: saline) 95 % of control.
`Cc1ccc([N+](=O)[O-])c(OC(=O)Nc2ccccc2Cl)c1`: the T/C was 100 % of control (dose: 100.0 mg/kg/injection, schedule: Q04DX003 (ip), vehicle: Klucel (hydroxypropylcellulose) (HPC)); 93 % of control (dose: 200.0 mg/kg/injection, schedule: Q04DX003 (ip), vehicle: Klucel (hydroxypropylcellulose) (HPC)); 93 % of control (dose: 400.0 mg/kg/injection, schedule: Q04DX003 (ip), vehicle: Klucel (hydroxypropylcellulose) (HPC)).
Regarding `C=CCN1CCC(C(=O)CC)(c2ccccc2)CC1`, the T/C (dose: 10.0 mg/kg/injection, schedule: Q04DX003 (ip), vehicle: Klucel (hydroxypropylcellulose) (HPC)) is 111 % of control; the T/C (dose: 20.0 mg/kg/injection, schedule: Q04DX003 (ip), vehicle: Klucel (hydroxypropylcellulose) (HPC)) was 114 % of control; the T/C (dose: 40.0 mg/kg/injection, schedule: Q04DX003 (ip), vehicle: Klucel (hydroxypropylcellulose) (HPC)) is 114 % of control.
As to `CCC(C#N)=C1CCCCC1`, the T/C by setting is: (dose: 25.0 mg/kg/injection, schedule: Q01DX009 (ip), vehicle: saline with Tween-80) 102 % of control; under setting [4], 106 % of control; under setting [5], 114 % of control.
With `Oc1ccccc1/C=N/NC(=S)NC1CC2C=CC1C2` (stereo not given), the T/C (dose: 50.0 mg/kg/injection, schedule: Q01DX009 (ip), vehicle: olive oil, sesame oil, peanut oil) was 88 % of control.
Regarding `CN(C)N=Nc1cn(C)c(=O)n(C)c1=O`, the T/C by setting is: (dose: 12.5 mg/kg/injection, schedule: Q04DX003 (ip), vehicle: Klucel (hydroxypropylcellulose) (HPC)) 100 % of control; (dose: 25.0 mg/kg/injection, schedule: Q04DX003 (ip), vehicle: Klucel (hydroxypropylcellulose) (HPC)) 118 % of control; (dose: 50.0 mg/kg/injection, schedule: Q04DX003 (ip), vehicle: Klucel (hydroxypropylcellulose) (HPC)) 103 % of control.
Consider `C1CN1P1(N2CC2)=NP(N2CC2)(N2CC2)=NP(N2CC2)(N2CC2)=NP(N2CC2)(N2CC2)=N1`, for which the T/C (dose: 1.0 mg/kg/injection, schedule: Q01DX009 (ip), vehicle: saline) is 105 % of control; the T/C (dose: 1.0 mg/kg/injection, schedule: Q02DX009 (ip), vehicle: saline) was 88 % of control; the T/C (dose: 2.0 mg/kg/injection, schedule: Q01DX009 (ip), vehicle: saline) was 116 % of control; the T/C (dose: 2.0 mg/kg/injection, schedule: Q02DX009 (ip), vehicle: saline) was 95 % of control and 105 % of control; the T/C (dose: 4.0 mg/kg/injection, schedule: Q01DX009 (ip), vehicle: saline) is 120 % of control; the T/C (dose: 4.0 mg/kg/injection, schedule: Q02DX009 (ip), vehicle: saline) is 87 % of control and 90 % of control. Also, the T/C (dose: 8.0 mg/kg/injection, schedule: Q01DX009 (ip), vehicle: saline) was 108 % of control; the T/C (dose: 8.0 mg/kg/injection, schedule: Q02DX009 (ip), vehicle: saline) is 100 % of control; the T/C (dose: 16.0 mg/kg/injection, schedule: Q01DX009 (ip), vehicle: saline) is 93 % of control; the T/C (dose: 16.0 mg/kg/injection, schedule: Q02DX009 (ip), vehicle: saline) is 98 % of control and 100 % of control; the T/C (dose: 32.0 mg/kg/injection, schedule: Q01DX009 (ip), vehicle: saline) is 97 % of control; the T/C (dose: 32.0 mg/kg/injection, schedule: Q02DX009 (ip), vehicle: saline) is 87 % of control and 100 % of control. For the same molecule, the T/C by setting is: (dose: 64.0 mg/kg/injection, schedule: Q01DX009 (ip), vehicle: saline) 108 % of control; (dose: 64.0 mg/kg/injection, schedule: Q02DX009 (ip), vehicle: saline) 87 % of control and 94 % of control.
Take `CCCCNC(C)(C)C1(c2ccc(Cl)cc2)SSC(c2ccc(Cl)cc2)(C(C)(C)NCCCC)SS1` (stereo not given): the T/C is, setting by setting: (dose: 10.0 mg/kg/injection, schedule: Q01DX009 (ip), vehicle: Klucel (hydroxypropylcellulose) (HPC)) 94 % of control; (dose: 20.0 mg/kg/injection, schedule: Q01DX009 (ip), vehicle: Klucel (hydroxypropylcellulose) (HPC)) 89 % of control; (dose: 40.0 mg/kg/injection, schedule: Q01DX009 (ip), vehicle: Klucel (hydroxypropylcellulose) (HPC)) 86 % of control.
Turning to `COc1cc([N+](=O)[O-])ccc1NC(=O)Nc1ccc(Cl)cc1`, the T/C was 93 % of control under setting [4]; 91 % of control under setting [5]; 101 % of control (dose: 200.0 mg/kg/injection, schedule: Q01DX009 (ip), vehicle: saline with Tween-80).
For `O=NN(CCCl)C(=O)Nc1ccc2c3c(cccc13)-c1ccccc1-2`, the T/C (dose: 1.56 mg/kg/injection, schedule: Q01DX009 (ip), vehicle: Klucel (hydroxypropylcellulose) (HPC)) is 111 % of control; the T/C (dose: 3.12 mg/kg/injection, schedule: Q01DX009 (ip), vehicle: Klucel (hydroxypropylcellulose) (HPC)) is 124 % of control; the T/C (dose: 25.0 mg/kg/injection, schedule: Q01DX009 (ip), vehicle: Klucel (hydroxypropylcellulose) (HPC)) is 158 % of control and 175 % of control; the T/C (dose: 50.0 mg/kg/injection, schedule: Q01DX009 (ip), vehicle: Klucel (hydroxypropylcellulose) (HPC)) was 170 % of control; the T/C (dose: 100.0 mg/kg/injection, schedule: Q01DX009 (ip), vehicle: Klucel (hydroxypropylcellulose) (HPC)) is 150 % of control; the T/C (dose: 200.0 mg/kg/injection, schedule: Q01DX009 (ip), vehicle: Klucel (hydroxypropylcellulose) (HPC)) is 150 % of control.
Turning to `Nc1nc2n[nH]nc2c(=O)[nH]1`, the T/C runs as follows: (dose: 25.0 mg/kg/injection, schedule: Q01DX009 (ip), vehicle: saline) 108 % of control; (dose: 50.0 mg/kg/injection, schedule: Q01DX009 (ip), vehicle: saline) 108 % of control; (dose: 100.0 mg/kg/injection, schedule: Q01DX009 (ip), vehicle: saline) 113 % of control; (dose: 200.0 mg/kg/injection, schedule: Q01DX009 (ip), vehicle: saline) 111 % of control.
